What was measured:
Format in all cases: cell-based, Human
[1] = system: intracellular nitric oxide (NO) in HUVECs; test: Intracellular NO production analysis (DAF-FM probe); conditions: L-NMMA (10 μM) with NTS, FIG. 6B
Experimental: Nitric oxide (NO) levels were confirmed by measuring fluorescence changes in 4-amino-5-methylamino-2′,7′-difluorofluorescein diacetate (DAF-FMDA, Thermo Fisher, D23844, Eugene, Oreg., USA) due to oxidation, respectively. Cells were cultured with reagents according to the manufacturer's instructions. Changes in DAF-FM fluorescence were measured by flow cytometry (BD Biosciences) and a fluorescence microscope (EVOS FL Auto, Thermo Fisher) after 24 hours. NG-methyl-L-arginine acetate salt (L-NMMA, Sigma, M7033) was used to suppress the production of nitric oxide (NO).

[2] = system: HUVEC tube formation; test: Tube formation analysis on Matrigel; conditions: L-NMMA (10 μM) with NTS, FIG. 6C
Experimental: HUVEC cells were trypsinized and then seeded onto a 96-well plate (2×10^4/well) pre-coated with 40 μl (10 mg/ml) of growth factor-reduced Matrigel (BD Biosciences, Billerica, Mass.) in an EBM2 medium.
After incubation at 37° C. for 30 minutes, 1 hour, 3 hours, and 6 hours, viable cells were detected by staining with Calcein AM (Trevigen, Gaithersburg, Md.), and then a capillary-like structure was imaged using EVOS FL Auto (ThermoFisher). Data in the images was quantified with National Institutes of Health (NIH) ImageJ 1.41q software.

[3] = system: eNOS (S1177); test: Western blot, phosphorylated eNOS; conditions: FIG. 6A
Experimental: Western blot was performed using a known method. Cells were lysed in a RIPA buffer (Sigma Aldrich) including 150 mM NaCl, 1.0% Nonidet-P 40, 0.5% sodium deoxycholate, 0.1% sodium dodecyl sulfate, 50 mM Tri (pH 8.0), a protease inhibitor cocktail and PhoSTOP (Roche Molecular Biochemicals, Basel, Switzerland).
A primary antibody used in the present experiment was purchased from Cell Signaling (Danvers, Mass., USA) and VE-cadherin, p-LKB1, and LKB1 were purchased from Santa Cruz (Cambridge, UK). A secondary antibody (anti-rabbit IgG or anti-mouse IgG, 1:2000) was purchased from Cell Signaling Technology.
Data in the images was quantified with National Institutes of Health (NIH) ImageJ 1.41q software.

[4] = system: MMP-2; test: Gelatin zymogram analysis; conditions: L-NMMA with NTS, FIG. 6F
Experimental: Matrix metalloproteases were analyzed using a known gelatin zymography method. The cells according to Example 2-1 were cultured in a 6-well plate (Corning Scientific, Rochester, N.Y., USA) and treated with NTS (60 sec/ml) or a vehicle control. Thereafter, the supernatant (100 μl) of each sample was mixed with 1 μl of 100 mM 4-aminophenylmercuric acetate (Sigma-Aldrich), and the sample was incubated at 37° C. for 1 hour. After each sample was placed in a sample buffer (excluding 2-mercaptoethanol) for 10 minutes, the samples were electrophoresed on an a 8% polyacrylamide gel containing 1% gelatin.
The gel was incubated at room temperature for 60 minutes in a regeneration buffer, and then incubated in 100 ml of a development buffer at 37° C. with gentle shaking. Thereafter, the gel was stained with Coomassie Brilliant Blue for 3 hours. After destaining with 400 ml of a destaining solution (methanol, 100 ml of acetic acid, 500 ml of distilled water), images were obtained using an image analyzer.

[5] = system: VE-cadherin; test: Immunocytochemical analysis, VE-cadherin; conditions: NTS+L-NMMA, FIG. 6G
Experimental: Immunocytochemical analysis was performed using a known method. The cells cultured according to Example 2-1 were additionally cultured on coverslips (Thermo Fisher Scientific, Rochester, N.Y., USA) and treated with NTS (60 sec/ml) or a vehicle control.
The coverslips were then treated with polyclonal rabbit anti-LC3B, p-FAK, and VE-Cadherin (1:200; Cell Signaling Technology, Danvers, Mass., USA), incubated for 2 hours, washed with PBS, and then incubated with an Alexa 488-labeled antibody for 1 hour.
Thereafter, after being washed three times with PBS, the slides were stained with Hoechst 33258 (Molecular Probe), and phalloidin (1:50; Molecular Probes, R415) was added thereto for 15 minutes to counterstain nuclei and F-actin. The stained coverslips were washed with PBS, mounted with Vectashield (Vector Laboratories, Inc., Burlingame, Calif., USA), and then analyzed using EVOS FL Auto (Thermo Fisher).

CC(=O)O.CNC(=N)NCCC[C@H](N)C(=O)O [L-NMMA, NG-methyl-L-arginine acetate salt]
intracellular nitric oxide by NTS [1]: significantly reduced
tubular network formed by NTS [2]: significantly disrupted
p-eNOS phosphorylation by NTS ([3]; L-NMMA (10 μM) with NTS): significantly reduced
phosphorylation of eNOS upregulated by NTS ([3]; L-NMMA, 1 mM): significantly attenuated
NTS-activated MMP2 [4]: significantly attenuated
NTS-induced reduction of VE-cadherin expression [5]: significantly attenuated
